Reference: ChEMBL document CHEMBL2390858, “Design, synthesis and anti-tuberculosis activity of 1-adamantyl-3-heteroaryl ureas with improved in vitro pharmacokinetic properties” (Bioorg Med Chem, 2013)
Converted amounts (≈) assume the structure as drawn.

Legend:
Klebsiella pneumoniae = assay: microbe, parasite or virus in culture
Bacillus anthracis = assay: microbe, parasite or virus in culture; details: Sterne
Escherichia coli = assay: microbe, parasite or virus in culture; details: K-12
Staphylococcus aureus [1] = assay: microbe, parasite or virus in culture; details: NRS70
Bacillus subtilis = assay: microbe, parasite or virus in culture
Proteus mirabilis = assay: microbe, parasite or virus in culture
[2] = buffer, 18 h, pH 7.4
Pseudomonas aeruginosa = assay: microbe, parasite or virus in culture
Enterococcus faecalis = assay: microbe, parasite or virus in culture
[3] = test system: Mycobacterium tuberculosis; assay: microbe, parasite or virus in culture; details: H37Rv, 168 h
Streptococcus pyogenes = assay: microbe, parasite or virus in culture
Proteus vulgaris = assay: microbe, parasite or virus in culture
Burkholderia cepacia = assay: microbe, parasite or virus in culture
Streptococcus pneumoniae = assay: microbe, parasite or virus in culture
[4] = molecular target: T1, Bifunctional epoxide hydrolase 2 (Homo sapiens, UniProt P34913)
T1 sequence (P34913 whole entry): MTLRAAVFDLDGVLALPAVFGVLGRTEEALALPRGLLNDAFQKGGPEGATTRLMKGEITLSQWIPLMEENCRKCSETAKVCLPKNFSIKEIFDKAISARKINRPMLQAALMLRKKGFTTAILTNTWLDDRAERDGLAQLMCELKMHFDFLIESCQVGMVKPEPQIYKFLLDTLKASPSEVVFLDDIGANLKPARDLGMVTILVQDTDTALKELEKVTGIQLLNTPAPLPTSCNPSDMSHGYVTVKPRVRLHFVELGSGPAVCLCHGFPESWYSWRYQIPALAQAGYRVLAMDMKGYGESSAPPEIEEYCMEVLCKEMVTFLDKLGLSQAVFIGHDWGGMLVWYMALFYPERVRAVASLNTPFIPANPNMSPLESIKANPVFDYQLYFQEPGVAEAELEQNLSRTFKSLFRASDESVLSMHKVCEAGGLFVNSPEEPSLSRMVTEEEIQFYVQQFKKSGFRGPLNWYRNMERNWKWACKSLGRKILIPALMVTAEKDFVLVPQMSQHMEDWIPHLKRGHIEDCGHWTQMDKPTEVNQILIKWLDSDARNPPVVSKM

Staphylococcus aureus [5] = assay: microbe, parasite or virus in culture; details: ATCC 29213
Acinetobacter = assay: microbe, parasite or virus in culture

Row | SMILES | MIC (Klebsiella pneumoniae) [µg/mL] | MIC (Bacillus anthracis) [µg/mL] | MIC (Escherichia coli) [µg/mL] | MIC (Staphylococcus aureus [1]) [µg/mL] | MIC (Bacillus subtilis) [µg/mL] | MIC (Proteus mirabilis) [µg/mL] | solubility [2] [µg/mL] | MIC (Pseudomonas aeruginosa) [µg/mL] | MIC (Enterococcus faecalis) [µg/mL] | MIC [3] [µg/mL] | MIC (Streptococcus pyogenes) [µg/mL] | MIC (Proteus vulgaris) [µg/mL] | MIC (Burkholderia cepacia) [µg/mL] | MIC (Streptococcus pneumoniae) [µg/mL] | IC50 [4] [nM] | MIC (Staphylococcus aureus [5]) [µg/mL] | MIC (Acinetobacter) [µg/mL]
1 | Cc1nnc(NC(=O)NC23CC4CC(CC(C4)C2)C3)o1 | > 200 | > 200 | > 200 | > 200 | > 200 | > 200 | 9.77 (≈ 35.4 µM) | > 200 | > 200 | 25 (≈ 90.5 µM) | > 200 | > 200 | > 200 | > 200 | 595 | > 200 | > 200
2 | O=C(Nc1nnc(C2CC2)o1)NC12CC3CC(CC(C3)C1)C2 | > 200 | 50 (≈ 165 µM) | > 200 | > 200 | 100 (≈ 331 µM) | > 200 | 38.3 (≈ 127 µM) | > 200 | > 200 | 12.5 (≈ 41.3 µM) | > 200 | > 200 | > 200 | > 200 | 503 | > 200 | > 200
3 | O=C(Nc1nnc(C2CCC2)o1)NC12CC3CC(CC(C3)C1)C2 | > 200 | 25 (≈ 79 µM) | > 200 | 50 (≈ 158 µM) | 50 (≈ 158 µM) | > 200 | 10.5 (≈ 33.2 µM) | > 200 | 100 (≈ 316 µM) | 12.5 (≈ 39.5 µM) | 100 (≈ 316 µM) | > 200 | > 200 | 100 (≈ 316 µM) | 241 | 50 (≈ 158 µM) | > 200
4 | CCn1ccc(NC(=O)NC23CC4CC(CC(C4)C2)C3)n1 | > 200 | 100 (≈ 347 µM) | > 200 | 200 (≈ 693 µM) | 200 (≈ 693 µM) | > 200 | 10.5 (≈ 36.4 µM) | > 200 | > 200 | 25 (≈ 86.7 µM) | 0.78 (≈ 2.7 µM) | > 200 | > 200 | 200 (≈ 693 µM) | 884 | > 200 | > 200
5 | O=C(Nc1ccncc1)NC12CC3CC(CC(C3)C1)C2 | > 200 | > 200 | > 200 | > 200 | > 200 | > 200 | 7 (≈ 25.8 µM) | > 200 | > 200 | 18 (≈ 66.3 µM) | > 200 | > 200 | > 200 | > 200 | 174 | > 200 | > 200
6 | O=C(Nc1cccnc1)NC12CC3CC(CC(C3)C1)C2 | > 200 | > 200 | > 200 | > 200 | > 200 | > 200 | 6.7 (≈ 24.7 µM) | > 200 | > 200 | 12.5 (≈ 46.1 µM) | > 200 | > 200 | > 200 | > 200 | 113 | > 200 | > 200
7 | O=C(Nc1ncccn1)NC12CC3CC(CC(C3)C1)C2 | > 200 | > 200 | > 200 | > 200 | > 200 | > 200 | 6.9 (≈ 25.3 µM) | > 200 | > 200 | 200 (≈ 734 µM) | > 200 | > 200 | > 200 | > 200 | 24000 | > 200 | > 200
8 | O=C(Nc1ccncn1)NC12CC3CC(CC(C3)C1)C2 | > 200 | > 200 | > 200 | > 200 | 50 (≈ 184 µM) | > 200 | 15.5 (≈ 56.9 µM) | > 200 | > 200 | 25 (≈ 91.8 µM) | > 200 | > 200 | 200 (≈ 734 µM) | 50 (≈ 184 µM) | 775 | 100 (≈ 367 µM) | > 200
9 | O=C(Nc1ncncn1)NC12CC3CC(CC(C3)C1)C2 | > 200 | > 200 | > 200 | > 200 | > 200 | > 200 | 7.2 (≈ 26.3 µM) | > 200 | > 200 | 125 (≈ 457 µM) | > 200 | > 200 | > 200 | > 200 | 79 | > 200 | > 200
10 | O=C(Nc1nccnn1)NC12CC3CC(CC(C3)C1)C2 | > 200 | > 200 | > 200 | > 200 | > 200 | > 200 | 6.8 (≈ 24.9 µM) | > 200 | > 200 | 200 (≈ 732 µM) | > 200 | > 200 | > 200 | > 200 | 1010 | > 200 | > 200
11 | O=C(Nc1ccon1)NC12CC3CC(CC(C3)C1)C2 | > 200 | > 200 | > 200 | > 200 | > 200 | > 200 | 20.3 (≈ 77.7 µM) | > 200 | 100 (≈ 383 µM) | 50 (≈ 191 µM) | > 200 | > 200 | 100 (≈ 383 µM) | > 200 | 46 | > 200 | > 200
12 | Cc1cc(NC(=O)NC23CC4CC(CC(C4)C2)C3)no1 | > 200 | > 200 | > 200 | > 200 | 200 (≈ 726 µM) | > 200 | 25.9 (≈ 94.1 µM) | > 200 | > 200 | 27 (≈ 98.1 µM) | > 200 | > 200 | > 200 | > 200 | 136 | 200 (≈ 726 µM) | > 200
13 | Cc1cc(CNC(=O)NC23CC4CC(CC(C4)C2)C3)no1 | > 200 | > 200 | > 200 | > 200 | > 200 | > 200 | 3 (≈ 10.4 µM) | > 200 | > 200 | > 50 | > 200 | > 200 | > 200 | > 200 | 1550 | > 200 | > 200
14 | Cc1cc(NC(=O)NC23CC4CC(CC(C4)C2)C3)on1 | > 200 | > 200 | 200 (≈ 726 µM) | > 200 | > 200 | > 200 | 5.5 (≈ 20 µM) | > 200 | 100 (≈ 363 µM) | 12.5 (≈ 45.4 µM) | > 200 | > 200 | 100 (≈ 363 µM) | > 200 | 117 | 200 (≈ 726 µM) | > 200
15 | Cc1noc(NC(=O)NC23CC4CC(CC(C4)C2)C3)c1C#N | > 200 | > 200 | > 200 | > 200 | > 200 | > 200 | 1.2 (≈ 4 µM) | > 200 | 200 (≈ 666 µM) | 100 (≈ 333 µM) | > 200 | > 200 | 200 (≈ 666 µM) | > 200 | 25 | > 200 | > 200
